Results on 87 compounds are retold here after a melting point compilation (Tetko et al.; mined from patent text by program, amines drawn as free bases though some values may be those of a salt).

SMILES strings stand for the structures.

As usually defined, the melting point is the temperature, or range, at which the solid turns liquid. In turn, `OCC1OC(n2cnc3c(NCCc4cccs4)ncnc32)C(O)C1O` (configuration not stated) gave a melting point of 153 to 154 °C.
With `C[C@H](NC(=O)C[C@@H](CCO)c1ccc(F)cc1)c1ccccc1` the figure was 170 °C.
In the case of `CCOc1c(OC)cc(COc2ccc(N)nn2)cc1OC`, the melting point is 169 to 171 °C.
With `CCN(CC)CCNC(=O)c1cnc2ccc(I)cc2c1Cl` the figure was 76 to 78 °C; with `CCOc1c(O)nc(-c2ccc(Cl)c(OC)c2F)nc1C(=O)OC`, 173 to 175 °C; with `CC(C)(C)OC(=O)Nc1ccoc1C(N)=O`, 140 to 143 °C.
With `COc1ccoc1C1OC(=O)NC1=O` (configuration not stated) the figure was 102 to 104 °C; with `O=C(COc1cc(-c2ccccc2)nc2ccc(Cl)cc12)N1CCOCC1`, 182 °C.
With `CCOc1nc(=O)n(C(=O)NCCCl)s1` the figure was 82 °C; with `O=C(NCc1cccs1)C1CC2C=CC1C2` (configuration not stated), 123 to 124 °C; with `COc1ccc(S(=O)(=O)N2CCC3(C=Cc4ccccc43)CC2)cc1`, 181 to 183 °C.
In the case of `CCOC(=O)c1[nH]c(C)c(C)c1OCCCCCl`, the melting point is 58 to 60 °C.
`CCCc1nnc2c(Cl)nc3ccccc3n12` came in with a melting point of 173 to 175 °C.
`OCCc1c[nH]c2ccc(F)cc12` gave a melting point of 59 to 61 °C.
As for `CC(C)Oc1cc(O)c(C(=O)C=Cc2ccccc2OC(C)C)c(OC(C)C)c1`, the figure is 119 to 120 °C; as for `O=C(NCCO)c1cccc(-c2ccc3c(c2)C(Oc2ccc(Cl)cc2Cl)CC3)c1` (configuration not stated), 155 to 156 °C.
As for `CCc1nc2cc(Cl)c(Cl)cc2n1C1CC(CO)C(O)C1O` (configuration not stated), the figure is 191 to 193 °C; as for `COC(=O)C(=O)CC(=O)/C=C/c1ccc(Cl)cc1`, 135 to 136 °C.
With `COc1cc(-c2cc(=O)c3ccc(OCC(O)CN4CCN(c5ccccc5)CC4)cc3o2)cc(OC)c1OC` (configuration not stated) the figure was 170 to 171 °C; with `COc1ccccc1N1CCN(CCC(C(=O)NCCN2CCOCC2)c2ccccc2)CC1` (configuration not stated), 60 to 65 °C; with `CC(C)(C)c1cc(SC(Sc2cc(C(C)(C)C)c(O)c(C(C)(C)C)c2)c2cc(C(C)(C)C)c(O)c(C(C)(C)C)c2)cc(C(C)(C)C)c1O`, 175 to 177 °C.
For the compound `C(=C\c1cc(/C=C/c2ccc3cc[nH]c3c2)n[nH]1)/c1ccc(-c2ccccc2)cc1`, the melting point lay within 273 to 276 °C.
With `O=C(NCC(=O)N1CCCC1)c1ccc(-c2ccc3nnn(Cc4ccc5ncccc5c4)c3n2)cc1F` the figure was 175 to 177 °C.
As to `Cn1c(C(F)(F)F)ccc(-c2cc(S(=O)(=O)Cl)c(Cl)cc2F)c1=O`, the melting point was in the range of 77 to 78 °C.
In turn, `COc1ccc2c(c1)CC[C@@H]1[C@@H]2CC[C@@]2(C)[C@H]1CCC21C=CCO1` (some centres not stated) yielded a melting point of 159 to 161 °C.
`O=C(OCCO)c1ccc([N+](=O)[O-])cc1` yielded a melting point of 77 to 78 °C.
In turn, `CCCCSc1cc(C(=O)O)cc(S(N)(=O)=O)c1Oc1ccccc1` came in with a melting point of 222 to 224 °C.
Compound `COc1ccc2cc(N3CCC4(CCN(C)CC4)CC3)ccc2c1` gave a melting point of 122 to 125 °C.
As for `Cc1cccc(C(=O)Nc2c(NC(=O)CCl)ccc3c2C(=O)c2ccccc2C3=O)c1`, the figure is 202 to 203 °C; as for `O=c1c(Br)c(OCc2ccccc2)ccn1Cc1cccc(C(F)(F)F)c1`, 182 °C; as for `CC(c1ccc(Cl)c(Cl)c1)n1[nH]c(N)cc1=O` (configuration not stated), 127 to 129 °C.
`NNC(=O)CC1(O)c2ccccc2C=Cc2ccccc21`: the melting point was 192 to 194 °C.
As for `CSC(=NCCSCc1cc2ccc(CN(C)C)cc2o1)NC#N`, the figure is 98 to 100 °C; as for `O=C1NC(=O)C(Cc2ccc(OCCON3C(=O)c4ccccc4C3=O)cc2)S1` (configuration not stated), 146 to 147 °C; as for `CN1CCN(Cc2ccc(C(=O)Nc3cccc(Nc4ncc(C#N)c(-c5cccs5)n4)c3)cc2)CC1`, 208 to 209 °C.
Take `CCCOc1cc(F)cc2c1c(CCN(C)C)cn2CC`: the melting point lay within 68.9 to 70.1 °C.
With `CCOc1cc(-c2cnc3[nH]cc(C(=O)C(C)(C)C)c3n2)cc(N2CCCC2)c1` the figure was 236 to 237 °C; with `CCCCNCC(O)COc1ccc(-c2nc(C(F)(F)F)c[nH]2)cc1` (configuration not stated), 151 to 154 °C.
As for `CC(C)(C)OC(=O)N1C(=O)CCC1c1ccc(Br)cc1` (configuration not stated), the figure is 122 to 124 °C.
As for `C[C@H]1[C@H](O)[C@H](O)C(S(=O)(=O)c2ccccc2)=C[C@H](C)[C@H]1O`, the figure is 143 to 145 °C.
Consider `C=CCc1cc2c(cc1O)CC(CCc1ccccc1)O2` (configuration not stated), for which the melting point was 79 to 80 °C.
With `O=C1NC(=O)C(c2cn3c4c(cccc24)CC3)C1c1c[nH]c2ccccc12` (configuration not stated) the figure was 144 to 148 °C; with `O=c1ccc(-c2c(-c3ccccc3)nn3ccccc23)nn1C1CCCCC1=Cc1nnn[nH]1` (configuration not stated), 129 to 131 °C; with `CCc1cc(SCCc2cccc3cn(-c4ccc(C(F)(F)F)cc4)nc23)ccc1OCC(=O)O`, 115 to 117 °C.
As to `COc1cc(C(=O)O)ccc1Cn1cnc2ccc(NC(=O)OC3CCCC3)cc21`, the melting point lay in the range of 241 to 242 °C.
As for `O=S(=O)(c1ccccc1)C(F)(F)C(F)Cl` (configuration not stated), the figure is 38 to 39 °C; as for `CC1=C(NC=O)C(C)C(C)(C(C)C)C2=C1CC(C)(CI)O2` (configuration not stated), 145 to 147 °C.
As for `COC(=O)[C@H](CCCCNC(=O)c1csc(NC(=O)NCc2ccccc2)n1)NC(=O)OC(C)(C)C`, the figure is 166 °C; as for `CC(C)OC(C)c1nnc(N)s1` (configuration not stated), 129 to 135 °C.
Compound `CCOC(=O)c1cn(C2CC2)c2nc(N3CCC(N)C3)c(F)cc2c1=O` (configuration not stated) yielded a melting point of 144 to 146 °C.
As to `COC(=O)c1ccc(NC(C)=O)c(NC(=O)C(COC(C)=O)OC(C)=O)c1` (configuration not stated), the melting point lay within 130 to 134 °C.
Consider `COc1ccc(-c2c(C(=O)c3ccccc3)c(CSc3nccn3C)nc3cc(OC)c(OC)cc23)cc1OC`, for which the melting point lay within 185 to 186 °C.
As for `COc1ccc(Cl)cc1NC(=O)C1CCNCC1`, the figure is 124 to 126 °C; as for `COC(=O)C=C1C[N+]([O-])=C(c2ccccc2)c2cc(Cl)ccc2N1`, 215 to 216 °C.
As for `Clc1ccc(-c2nc3n(c2Br)CCCC3)c(Cl)c1`, the melting point lay in the range of 112 to 113 °C.
`Cc1nc(N2CCN(CC3CCCCC3)C2=O)sc1C(=O)NCc1cccnc1` displayed a melting point of 134 to 136 °C.
`CC(=O)SCC(CSC(C)=O)C(=O)N(CC(=O)O)C1Cc2ccccc2C1`: the melting point fell in the range of 114 to 115 °C.
The compound `CC1CC(=O)C(C(=O)CCC2CCCO2)C(=O)O1` (configuration not stated) showed a melting point of 43 to 45 °C.
As for `O=C(O)CCCCCCCn1c(-c2cc(I)c(O)c(I)c2)nc(-c2ccccc2)c1-c1ccccc1`, the figure is 186 °C; as for `CC(C)(C)Nc1nc(Cl)nc(Cl)n1`, 129 to 130 °C.
As to `Cc1nc(C#N)nc(NCC(F)(F)F)c1I`, the melting point lay within 103 to 105 °C.
`CCOC(=O)c1c(Cn2cncn2)nc2cc3c(cc2c1-c1ccc(OC)c(OC)c1)OCCO3` came in with a melting point of 138 to 140 °C.
In turn, `COc1cc2c(cc1OC)N(C(=O)c1ccc(-c3ccccc3C(F)(F)F)c(C)c1)Cc1ccc(C(=O)N(CCO)CCO)n1C2` showed a melting point of 130 to 132 °C.
For `O=C1CCN2CCc3ccccc3C2(c2ccc(F)cc2)C1` (configuration not stated), the melting point was 128 to 130 °C.
Take `CCCCCCC(C)(C)c1cc(OC)c(C2=C[C@@H]3CC[C@@]2(CO)C3(C)C)c(OC)c1`: the melting point was 49 to 51 °C.
As for `Cc1c(NC(=O)c2ccc(OCc3ccc(C(F)(F)F)cc3)cc2)ccc2cc(CN3CCCC3)cnc12`, the figure is 196 to 197 °C.
As for `Oc1ccc2c(-c3ccccn3)noc2c1Cl`, the figure is 209 to 211 °C.
As for `CCN1C(=O)c2ccc(C)cc2Oc2ncccc21`, the figure is 88 to 90 °C.
Compound `O=C(O)c1cccc(Oc2ccccc2Cl)c1[N+](=O)[O-]` registered a melting point of 185 to 187 °C.
On to `COc1cc2c3c(c1)c(=O)c(Cc1cccnc1)cn3-c1cc(Br)ccc1O2`, for which the melting point is 49.7 to 50.9 °C.
Regarding `CC(=O)N1C[C@@H](P(c2ccc(C)cc2)c2ccc(C)cc2)[C@H](P(c2ccc(C)cc2)c2ccc(C)cc2)C1`, the melting point lay within 164 to 167 °C.
In turn, `Cc1ccc(C(=O)Nc2c[nH]nc2C(=O)NCC(F)(F)F)cn1` came in with a melting point of 218 to 219 °C.
As to `CC(C)CC1N=C(c2ccccc2)c2cc(Cl)ccc2NC1=O` (configuration not stated), the melting point worked out at 213 °C.
With `CC(c1oc2ccccc2c(=O)c1-c1cccc(F)c1)n1nc(-c2cccc(C(=O)NC3CC3)c2)c2c(N)ncnc21` (configuration not stated) the figure was 127 to 132 °C; with `CCCCN(CCCC)S(=O)(=O)c1cc(O)c(N=Nc2c(C)nn(-c3ccccc3)c2O)c2ccccc12`, 173 to 174 °C.
With `COC(=O)c1cccc([N+](=O)[O-])c1C(=O)O` the figure was 166 to 168 °C.
As for `O=C1N(Cc2ccccn2)c2ccccc2C12COc1ccc3nonc3c12` (configuration not stated), the figure is 180 to 182 °C; as for `c1ccc(-c2ccc(-c3nc4n(n3)Cc3ccccc3-4)cc2)cc1`, 231 °C; as for `CCOC(=O)C1=C(C)NC(COC)=C(C(=O)OCC)C1c1ccc(S(C)(=O)=O)cc1` (configuration not stated), 156 to 158 °C.
Consider `CC(C)c1n[nH]c2c(NCc3ccccc3)nc(NCCN)nc12`, for which the melting point lay in the range of 145 to 147 °C.
`COc1ccc(Cl)c(Oc2c(CCl)nc(N3CCOCC3)nc2NS(=O)(=O)c2ccc(C(C)C)cn2)c1` registered a melting point of 205 °C.
`COc1cc(Nc2c(C#N)cnc3cc(-c4ccc(CN5CCN(CCO)CC5)o4)ccc23)c(Cl)cc1Cl` showed a melting point of 176 to 181 °C.
Compound `O=C(c1cccnc1)C1COCOC1` came in with a melting point of 91 to 100 °C.
As for `Cc1cc(COc2ccc(C(=O)NC[C@@H](C(=O)NO)N3CCN(S(=O)(=O)C(C)C)CC3)cc2)c2ccccc2n1`, the figure is 188 °C.
Regarding `Cc1c(S(N)(=O)=O)c(C(F)(F)F)nn1C`, the melting point was in the range of 204 to 206 °C.
As for `Clc1cc2c(cc1Cl)Sc1cc(Cl)c(Cl)cc1S2`, the figure is 250 to 255 °C; as for `COc1ccnc(C(=O)c2[nH]c3cc(Cl)ccc3c2N)c1`, 195 to 196 °C.
